Tests used:
[1] = biological target: T1, Factor Xa (Homo sapiens, UniProt P00742); test: Dose response assay for protease inhibitors: Factor Xa (FXIa fold selectivity); type: biochemical; conditions: fold selectivity for FXIa over Factor Xa
T1 construct: Factor Xa; 0.2 μM in 50% glycerol (9.2 μg/mL)
Procedure: (§1) • Assay buffer: 20 mM Hepes, pH 7.4; 150 mM NaCl; 0.02% Tween 20 • Compounds: 10 mM stocks in DMSO • Substrate: 20 mM Glp-Pro-Arg-AMC, 25 mg/2.3 mL H2O (store at +4° C.) [Factor XIa, thrombin, and trypsin] • 20 mM Pro-Phe-Arg-AMC (Bachem I-1295), 25 mg/2.2 mL H2O (store at +4° C.) [Factor Xa] • Enzyme: Factor XIa; 0.25 μM in 50% glycerol (20 μg/mL) • Trypsin; 0.2 μM in 50% glycerol (4.8 μg/mL) • Thrombin; 0.2 μM in 50% glycerol (7.34 μg/mL) • Factor Xa; 0.2 μM in 50% glycerol (9.2 μg/mL) • These stocks are aliquoted ([…]) and stored at −20° C. Methods: • 1. Dilute the substrate to 100 μM in assay buffer (30 μL/6 mL). The enzyme is diluted to 0.5 nM just prior to use (12 μL/6 mL for Factor XIa; 15 μL/6 mL for all of the rest.) • 2. Pipette 50 μL of substrate into each well of the 96 well (12×8) microtiter plate. (Column 1 is used as the 100% activity control and receives no compound, and Column 12 is the blank and receives no enzyme.) Add an additional 46 μL to column 2. • 3. Pipette 4 μL of each compound into the appropriate well in column 2 of the plate (unknowns assayed in triplicate, standard assayed in duplicate). The final compound concentration will be 1/50th of the stock. • 4. Serially two-fold dilute the compound by mixing the sample in column 2, removing 50 μL to the next well (column 3), mix and remove to column 4, etc. until column 11. After mixing column 11, remove 50 μL and discard. • 5. Pipette 50 μL of buffer into column 12. Initiate the reaction by adding 50 μL of enzyme solution to each well of columns 1-11 as rapidly as possible. • 6. Read the plate in a spectrophotometer (SpectraMax) at 30° C., wherein each well is measured every 60 s for 30 min. For Factor Xa assays, each well is measured every 1 min for a total of 60 min. • 7. For Factor XIa assays, the compounds are assayed, in duplicate, at 3 different starting concentrations, 20, 2, and 0.2 μM; 1:10, 1:100, and 1:1000 dil'n of 10 mM stock. All data sets are combined for graphing and data fitting. • 8. Data can be used both for estimation of IC50 and for estimation of Kon.

[2] = biological target: T2, Thrombin (Homo sapiens, UniProt P00734); test: Dose response assay for protease inhibitors: thrombin (FXIa fold selectivity); type: biochemical; conditions: fold selectivity for FXIa over thrombin
T2 construct: Thrombin; 0.2 μM in 50% glycerol (7.34 μg/mL)
Procedure: as §1

[3] = biological target: T3, human Factor XIa (Homo sapiens, UniProt P03951); test: Factor XIa enzyme inhibition assay (IC50, purified enzyme); type: biochemical; conditions: purified enzyme 0.25 nM, substrate 50 μM; read-out: Potency hFXIa IC50
T3 construct: Enzyme: Factor XIa; 0.25 μM in 50% glycerol (20 μg/mL)
T3 sequence (P03951 388-625 limits assumed): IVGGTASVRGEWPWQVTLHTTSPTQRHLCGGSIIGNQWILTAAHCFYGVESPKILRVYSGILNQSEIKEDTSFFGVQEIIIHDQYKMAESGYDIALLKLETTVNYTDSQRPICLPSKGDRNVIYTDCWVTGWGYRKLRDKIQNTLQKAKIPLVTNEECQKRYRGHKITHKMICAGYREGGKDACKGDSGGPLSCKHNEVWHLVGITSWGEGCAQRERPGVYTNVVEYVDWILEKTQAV
T3 sequence (P03951 19-387 partner limits assumed): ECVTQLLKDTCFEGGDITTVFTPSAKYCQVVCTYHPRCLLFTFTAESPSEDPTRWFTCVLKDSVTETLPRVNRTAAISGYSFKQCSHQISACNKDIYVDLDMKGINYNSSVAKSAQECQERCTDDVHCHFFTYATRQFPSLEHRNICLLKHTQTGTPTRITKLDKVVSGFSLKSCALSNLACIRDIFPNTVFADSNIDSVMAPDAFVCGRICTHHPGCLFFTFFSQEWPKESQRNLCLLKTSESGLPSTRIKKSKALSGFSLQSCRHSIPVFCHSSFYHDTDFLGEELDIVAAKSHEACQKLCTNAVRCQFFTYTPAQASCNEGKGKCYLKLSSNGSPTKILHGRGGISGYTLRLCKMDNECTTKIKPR
Procedure: as §1
Potential inhibitors of Factor XIa were evaluated using the following assay.
S-2366, pyroGlu-Pro-Arg-7-methylaminocourin (AMC), available from CPC Scientific, Inc., is based on the substrate pyro-Glu-Pro-Arg-pNA, available from Diapharma Group, Inc. (Columbus, Ohio), where the p-nitroanaline group is replaced with 7-methylaminocoumarin (AMC).
The final concentration of the substrate in the assay was 50 μM, and the final concentration of the enzyme was 0.25 nM. Inhibitors were tested by serial dilution over an appropriate range to yield a dose response curve for determination of the inhibitors' IC50 value. The assay mixture was read every minute for 30 minutes in order to generate progress curves. The plates were read in a Spectramax m5 Multimode Plate Reader (Molecular Devices LLC, Sunnyvale, Calif.). Dose response curves were fit to Equation 1 below in which A is the maximum inhibition, B is the minimum inhibition, C is the IC50, and D is the Hill coefficient. [(A−B)/(1+(X/C)^D)]+B (Equation 1)

[4] = tested on: Trypsin; test: Dose response assay for protease inhibitors: trypsin (FXIa fold selectivity); type: biochemical; conditions: fold selectivity for FXIa over trypsin
Procedure: as §1

[5] = β-Lactam stability in rat plasma; type: in vitro ADME; conditions: normal rat plasma, room temperature; read-out: Rat Plasma Stability (T1/2; min)
Procedure: Normal rat plasma, stored at −80° C.
• 1. Place 6 μL of each compound into 0.5 mL microcentrifuge tubes or 96-well U-bottom, polypropylene microtiter plate • 2. Place 40 μL of acetonitrile (AcN) into 0.5 mL microcentrifuge tubes labeled 1-9 • 3. Add 114 μL of plasma to each compound • 4. Sample 10 μL of compound/plasma into AcN at 2, 10, 20, 30, 60, 90, 120, 240, and 480 min of incubation at room temperature • 5. Mix each time point after adding sample and place on ice. • 6. Centrifuge time points (12,000 rpm, 3 min), remove 15 μL of the supernatant and mix with 15 μL 0.1% TFA in a V-bottom microtiter plate. • 7. Place microtiter plate in autosampler of HPLC and analyze on Restek Pinnacle C18 column (2.1×100 mm). • 8. Generate extracted ion chromatogram for parent compound and parent compound+18 (H2O). Integrate extracted ion chromatograms (EIC) and plot % total peak area for parent and adduct versus time. Fit to a model of single phase exponential decay [Y=A0*exp(−k*x)+C]. T½ is equal to ln(2)/k.

T1 sequence (P00742 235-488 limits assumed): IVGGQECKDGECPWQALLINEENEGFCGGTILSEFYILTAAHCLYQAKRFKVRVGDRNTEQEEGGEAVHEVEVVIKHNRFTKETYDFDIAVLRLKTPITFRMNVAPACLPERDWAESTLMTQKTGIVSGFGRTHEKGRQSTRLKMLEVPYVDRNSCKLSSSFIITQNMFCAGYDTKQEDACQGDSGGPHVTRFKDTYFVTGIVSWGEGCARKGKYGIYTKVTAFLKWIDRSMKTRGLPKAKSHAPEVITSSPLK
T1 sequence (P00742 41-179 partner limits assumed): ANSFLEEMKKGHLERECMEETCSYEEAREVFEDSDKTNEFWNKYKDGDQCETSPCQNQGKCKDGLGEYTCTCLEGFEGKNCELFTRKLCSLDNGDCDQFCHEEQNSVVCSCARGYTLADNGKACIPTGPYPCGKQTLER

Structure (SMILES) | FXIa Fold Selectivity FXa [1] | FXIa Fold Selectivity Thrombin [2] | IC50 [3] | FXIa Fold Selectivity Trypsin [4] | half-life [5]
C[C@@H](NC(=O)N1C(=O)[C@H](Cc2ccnc(N)c2)[C@H]1C(=O)OCc1ccccc1)c1ccccc1 [Example 1] | G (“G” indicates 1-500) | G (“G” indicates 1-500) | < 0.01 µM | G (“G” indicates 1-500) | –
COC(=O)[C@@H]1[C@@H](Cc2ccc(Cl)s2)C(=O)N1C(=O)N[C@H](C)c1ccccc1 [Example 2] | – | G (“G” indicates 1-500) | > 1 µM | G (“G” indicates 1-500) | > 1.67 h
NC(=O)[C@@H]1[C@@H](Cc2ccnc(N)c2)C(=O)N1C(=O)NC(c1ccccc1)c1ccccc1 [Example 22] | I (“I” indicates >1000) | H (“H” indicates 500-1000) | < 0.01 µM | I (“I” indicates >1000) | > 1.67 h
Nc1ncc(C[C@H]2C(=O)N(C(=O)NC(c3ccccc3)c3ccccc3)[C@@H]2C(=O)O)s1 [Example 23] | G (“G” indicates 1-500) | G (“G” indicates 1-500) | 0.1 to 1 µM | G (“G” indicates 1-500) | –
C[C@@H](NC(=O)N1C(=O)[C@H](Cc2cnc(N)s2)[C@H]1C(=O)O)c1ccccc1 [Example 24] | – | G (“G” indicates 1-500) | > 1 µM | G (“G” indicates 1-500) | –
Nc1cc(CC[C@H]2C(=O)N(C(=O)NC(c3ccccc3)c3ccccc3)[C@@H]2C(=O)O)ccn1 [Example 25] | G (“G” indicates 1-500) | G (“G” indicates 1-500) | 0.1 to 1 µM | G (“G” indicates 1-500) | –
C[C@@H](NC(=O)N1C(=O)[C@H](Cc2ccnc(N)c2)[C@H]1C(N)=O)c1ccccc1 [Example 26] | H (“H” indicates 500-1000) | I (“I” indicates >1000) | < 0.01 µM | I (“I” indicates >1000) | < 1.67 h
Nc1cc(C[C@H]2C(=O)N(C(=O)NC(c3ccccc3)c3ccccc3)[C@@H]2Oc2ccccc2)ccn1 [Example 27] | H (“H” indicates 500-1000) | G (“G” indicates 1-500) | 0.01 to 0.1 µM | G (“G” indicates 1-500) | < 1.67 h
N#C[C@@H]1[C@@H](Cc2ccnc(N)c2)C(=O)N1C(=O)NC(c1ccccc1)c1ccccc1 [Example 28] | I (“I” indicates >1000) | I (“I” indicates >1000) | 0.01 to 0.1 µM | G (“G” indicates 1-500) | < 1.67 h
COc1cccc([C@@H](C)NC(=O)N2C(=O)[C@H](Cc3ccnc(N)c3)[C@H]2C(=O)O)c1 [Example 29] | I (“I” indicates >1000) | I (“I” indicates >1000) | < 0.01 µM | G (“G” indicates 1-500) | > 1.67 h
Nc1cc(C[C@H]2C(=O)N(C(=O)NCC(c3ccccc3)c3ccccc3)[C@@H]2C(=O)O)ccn1 [Example 31] | G (“G” indicates 1-500) | G (“G” indicates 1-500) | 0.1 to 1 µM | G (“G” indicates 1-500) | > 1.67 h
CC[C@@H](NC(=O)N1C(=O)[C@H](Cc2ccnc(N)c2)[C@H]1C(=O)O)c1ccccc1 [Example 36] | I (“I” indicates >1000) | I (“I” indicates >1000) | < 0.01 µM | G (“G” indicates 1-500) | –
C[C@@H](NC(=O)N1C(=O)[C@H](Cc2ccnc(N)c2)[C@H]1C(=O)O)c1ccc(F)cc1 [Example 37] | H (“H” indicates 500-1000) | I (“I” indicates >1000) | < 0.01 µM | I (“I” indicates >1000) | –
CCOC(=O)[C@@H]1[C@@H](Cc2ccnc(N)c2)C(=O)N1C(=O)NC(c1ccccc1)c1ccccc1 [Example 46] | I (“I” indicates >1000) | G (“G” indicates 1-500) | 0.01 to 0.1 µM | G (“G” indicates 1-500) | –
C[C@@H](NC(=O)N1C(=O)[C@H](Cc2ccnc(N)c2)[C@H]1C(=O)O)c1cccnc1 [Example 54] | H (“H” indicates 500-1000) | I (“I” indicates >1000) | 0.01 to 0.1 µM | G (“G” indicates 1-500) | –
CCCCCCOC(=O)Nc1cc(C[C@H]2C(=O)N(C(=O)NC(C)c3ccccc3)[C@@H]2C(=O)OCC)ccn1 (stereo partly shown) [Example 160] | – | – | 0.1 to 1 µM | – | < 1.67 h
CC(C)OC(=O)[C@@H]1[C@@H](Cc2ccc(Cl)nc2)C(=O)N1C(=O)N[C@H](C)c1ccc2c(c1)OC(F)(F)O2 [Example 171] | – | – | > 1 µM | – | < 1.67 h
CCCCCCOC(=O)Nc1cc(C[C@H]2C(=O)N(C(=O)N[C@H](C)c3ccccc3)[C@@H]2C(=O)O)ccn1 [Example 175] | – | – | > 1 µM | – | > 1.67 h
CC(=O)OCOC(=O)[C@@H]1[C@@H](Cc2ccnc(NC(=O)OCOC(=O)C(C)C)c2)C(=O)N1C(=O)N[C@H](C)c1ccc2c(c1)OC(F)(F)O2 [Example 180] | – | – | 0.01 to 0.1 µM | – | < 1.67 h

— US11198673B2, “Therapeutic compounds and compositions” (eXIthera Pharmaceuticals, Inc., priority 2014, dated 2021)
